Values quoted from earlier work in US9446052B2, “Composition for prevention of nausea or vomiting” (SAMYANG BIOPHARMACEUTICALS CORPORATION, priority 2010, dated 2016).

Conditions: pH 6-7.5

Solubility in water: not soluble
Structure (SMILES): Cc1nccn1CC1CCc2c(c3ccccc3n2C)C1=O (stereo not shown) [ondansetron]
